The term IC50 denotes the concentration that gives 50% inhibition. Read a high IC50 as a need for much substance.

The target in one assay is T1, SARS-CoV-2 PLpro (Severe acute respiratory syndrome coronavirus 2, UniProt P0DTD1).
T1 construct: The papain-like protease domain (PLpro) of SARS-CoV-2 (SCoV2)
Kind of assay: IC50 inhibitory assay, fluorogenic substrate cleavage by PLpro. Format: biochemical. As to conditions: for IC50: SARS-CoV-2 PLpro 0.1 μM, substrate 10 μM, pH 8.1, 37 °C, 10 min preincubation; for inhibitory potency of PROTAC and parent ligand in binary IC50 experiment (in words): in vitro inhibitory assay, 20 mM HEPES, pH 8.1, 1% DMSO, PROTAC compared with parent ligand. The protocol: The inhibitory activities of compounds against SARS-CoV-2 PLpro were determined in a reaction buffer containing 20 mM HEPES, 40 mM NaCl, 5% glycerol, 2 mM DTT (freshly added before the measurements), pH 8.1, at 37 °C. A fluorescent substrate of SARS-CoV-2 PLpro (Z-Arg-leu-Arg-Gly-Gly-[…]AMC; Biosyntan, Berlin) was used, and the fluorescence signal of the cleaved substrate was monitored using a Tecan Spark® fluorescence spectrophotometer at an […] wavelength of 460/360 nm. SARS-CoV-2 PLpro (10 μL per well) was pipetted into a 96-well plate together with reaction buffer reaction buffer (50 μL per well, final enzyme concentration: 0.1 μM). Compounds (10 μL per well) were added at varying concentrations, and plates incubated at 37 °C for 10 mins. Finally, the reaction was initiated by adding 30 μL of the substrate (final concentration: 10 μM) dissolved in the reaction buffer.
FIG. 1: PROTAC and parent ligand for SARS-CoV-2 PLpro in a binary IC50 experiment. C10778A PROTAC (top left), comprising a SARS-CoV-2 PLpro targeting ligand C10778B (bottom left) connected to thalidomide via a C3 alkyl linker. IC50 values have been determined in an in vitro inhibitory binding assay whereby the fluorescence signal resulting from cleavage of a fluorogenic substrate by PLpro is measured. Inhibition of PLpro is associated with reduced cleavage of the fluorogenic substrate. […] Assay conditions: experiments were performed in 20 mM HEPES buffer containing 40 mM NaCl 5% glycerol, 2 mM DTT at pH 8.1. A fluorogenic substrate for PLpro (Z-Arg-leu-Arg-Gly-Gly-AMC) was used to determine the inhibition rate of compounds. Final DMSO concentration in each reaction was 1%. Measurements were performed in triplicate.

The next assay concerns SARS-CoV-2. The experiment in a line: Antiviral assay in infected Vero E6 cells (ATP quantification, Cell Titer Glo). The conditions noted are these: Vero E6 cells, MOI 0.05, 72 h; for inhibition at 10 µM / inhibition at 50 µM: Severe acute respiratory syndrome coronavirus 2, Vero C1008, 72 h; for inhibition at 10 µM: read-out: Antiviral Activity, 10 uM (cell viability assay), 10 uM; for inhibition at 50 µM: read-out: Antiviral Activity, 50 uM (cell viability assay), 50 uM; for Antiviral Activity, 10 uM (cell viability assay): 4320 min. A general note: ATP-based viability assays read luminescence as a measure of living cells.

Where only a bound is given, the exact number is not on record here.

On SARS-CoV-2 PLpro, `Cc1ccc(NC(=O)CCNc2cccc3c2C(=O)N(C2CCC(=O)NC2=O)C3=O)cc1C(=O)N[C@H](C)c1cccc2ccccc12` (stereo in doubt) [TS140] had a half-maximal inhibitory concentration (IC50) of more than 25 µM. Moreover, in the assay with SARS-CoV-2, the inhibition at 10 µM was less than 0% and the inhibition at 50 µM was less than 0%.
As to `Cc1ccc(NC(=O)CCOCCNc2ccc3c4c(cccc24)C(=O)N(C2CCC(=O)NC2=O)C3=O)cc1C(=O)N[C@H](C)c1cccc2ccccc12` (stereo in doubt) [TS181], in the assay with SARS-CoV-2, the “Antiviral Activity, 10 uM (cell viability assay)” value was “E (<0% = E)” and the inhibition at 50 µM was less than 0%.
Regarding `Cc1ccc(NC(=O)CCCCCOc2cc(-c3scnc3C)ccc2CNC(=O)[C@@H]2C[C@@H](O)CN2C(=O)[C@@H](NC(=O)C2(F)CC2)C(C)(C)C)cc1C(=O)N[C@H](C)c1cccc2ccccc12` (stereo in doubt) [TS291], on SARS-CoV-2 PLpro, the IC50 was more than 25 µM. In the assay on SARS-CoV-2, the inhibition at 10 µM was less than 0% and the inhibition at 50 µM was less than 25%.
With `Cc1ccc(NC2CCNCC2)cc1C(=O)N[C@H](C)c1cccc(-c2ccc(CNC(=O)CCCOc3cccc4c3C(=O)N(C3CCC(=O)NC3=O)C4=O)s2)c1` (stereo partly drawn) [Compound C10778A, N-((1R)-1-(3-(5-((4-((2-(2,6-Dioxopiperidin-3-yl)-1,3-dioxoisoindolin-4-yl)oxy)butanamido)methyl)thiophen-2-yl)phenyl)ethyl)-2-methyl-5-(piperidin-4-ylamino)benzamide], on SARS-CoV-2 PLpro, the IC50 was less than 1 µM; the “inhibitory potency of PROTAC and parent ligand in binary IC50 experiment (in words)” value is on record as “retains nM activity for PLpro, similar to the parent compound”.
On to `CC(=O)NCc1ccc(-c2cccc([C@@H](C)NC(=O)c3cc(NC4CCNCC4)ccc3C)c2)s1` [Compound C10778B, (R)—N-(1-(3-(5-(Acetamidomethyl)thiophen-2-yl)phenyl)ethyl)-2-methyl-5-(piperidin-4-ylamino)benzamide, reference compound], for which the “inhibitory potency of PROTAC and parent ligand in binary IC50 experiment (in words)” value on SARS-CoV-2 PLpro is “nM activity for PLpro”.
`Cc1ccc(NC2CCNCC2)cc1C(=O)N[C@H](C)c1cccc(-c2ccc(CNC(=O)CCCCCOc3cccc4c3C(=O)N(C3CCC(=O)NC3=O)C4=O)s2)c1` (stereo partly drawn) [Compound C10778C] yielded an IC50 against SARS-CoV-2 PLpro of less than 10 µM. Moreover, in the assay on SARS-CoV-2, the inhibition at 10 µM was less than 0% and the inhibition at 50 µM is less than 0%.
`Cc1ccc(NC2CCNCC2)cc1C(=O)N[C@H](C)c1cccc(-c2ccc(CNC(=O)CCCCCNc3ccc4c(c3)C(=O)N(C3CCC(=O)NC3=O)C4=O)s2)c1` (stereo partly drawn) [Compound C10778D] returned an IC50 against SARS-CoV-2 PLpro of less than 1 µM. Besides, in the assay with SARS-CoV-2, the inhibition at 10 µM was less than 0% and the inhibition at 50 µM was less than 0%.
As for `Cc1ccc(NC2CCNCC2)cc1C(=O)N[C@H](C)c1cccc(-c2ccc(CNC(=O)CCCNc3ccc4c(c3)C(=O)N(C3CCC(=O)NC3=O)C4=O)s2)c1` (stereo partly drawn) [Compound C10778E], at SARS-CoV-2 PLpro, the IC50 is less than 1 µM. Also, in the assay with SARS-CoV-2, the inhibition at 10 µM was less than 0% and the inhibition at 50 µM is less than 0%.
In turn, `Cc1ccc(NC2CCNCC2)cc1C(=O)N[C@H](C)c1cccc(-c2ccc(CNC(=O)CCCCNC(=O)COc3ccc(C4CCC(=O)NC4=O)cc3)s2)c1` (stereo partly drawn) [Compound C10778F] displayed an IC50 against SARS-CoV-2 PLpro of less than 10 µM. In the assay on SARS-CoV-2, the inhibition at 10 µM is less than 25% and the inhibition at 50 µM is less than 25%.
Take `Cc1ccc(NC2CCNCC2)cc1C(=O)N[C@H](C)c1cccc(-c2ccc(CNC(=O)CCCCCNC(=O)COc3ccc(C4CCC(=O)NC4=O)cc3)s2)c1` (stereo partly drawn) [Compound C10778G]: the IC50 against SARS-CoV-2 PLpro is less than 1 µM. In the assay on SARS-CoV-2, the inhibition at 10 µM is less than 25% and the inhibition at 50 µM was less than 25%.
Compound `Cc1ccc(NC(=O)CCOCCNc2ccc3c4c(cccc24)C(=O)N(C2CCC(=O)NC2=O)C3=O)cc1C(=O)N[C@H](C)c1cccc2ccccc12` (stereo partly drawn) [Compound C10778H] registered an IC50 on SARS-CoV-2 PLpro of more than 25 µM. The “Antiviral Activity, 10 uM (cell viability assay)” value in the assay with SARS-CoV-2 is given as “D (<25% = D)”. Further, the “Antiviral Activity, 50 uM (cell viability assay)” value in the assay with SARS-CoV-2 (50 uM) was “E (<0% = E)”.
For `Cc1ccc(NC2CCNCC2)cc1C(=O)N[C@H](C)c1cccc(-c2ccc(CNC(=O)CCCNc3cccc4c3C(=O)N(C3CCC(=O)NC3=O)C4=O)s2)c1` (stereo partly drawn) [Compound C10778I], the IC50 against SARS-CoV-2 PLpro is less than 1 µM. Further, in the assay on SARS-CoV-2, the inhibition at 10 µM is less than 0% and the inhibition at 50 µM is less than 0%.
As for `Cc1ccc(NC(=O)CCCCCNc2cccc3c2CN(C2CCC(=O)NC2=O)C3=O)cc1C(=O)N[C@H](C)c1cccc2ccccc12` (stereo partly drawn) [TS121], the IC50 at SARS-CoV-2 PLpro was in the range of 10 to 25 µM. Besides, in the assay with SARS-CoV-2, the inhibition at 10 µM was less than 0% and the inhibition at 50 µM was less than 0%.
The compound `Cc1ccc(NC(=O)CCCCNc2cccc3c2CN(C2CCC(=O)NC2=O)C3=O)cc1C(=O)N[C@H](C)c1cccc2ccccc12` (stereo partly drawn) [TS124] had an IC50 at SARS-CoV-2 PLpro of less than 10 µM. In the assay on SARS-CoV-2, the inhibition at 10 µM was less than 0% and the inhibition at 50 µM was less than 25%.
Consider `Cc1ccc(NC(=O)CCOCCOCCOCCNc2cccc3c2C(=O)N(C2CCC(=O)NC2=O)C3=O)cc1C(=O)N[C@H](C)c1cccc2ccccc12` (stereo partly drawn) [TS128], for which the IC50 on SARS-CoV-2 PLpro is less than 10 µM. Moreover, in the assay with SARS-CoV-2, the inhibition at 10 µM is less than 0% and the inhibition at 50 µM was less than 0%.
Take `Cc1ccc(NC(=O)CCOCCOCCOCCOCCNc2cccc3c2C(=O)N(C2CCC(=O)NC2=O)C3=O)cc1C(=O)N[C@H](C)c1cccc2ccccc12` (stereo partly drawn) [TS129]: at SARS-CoV-2 PLpro, the IC50 fell in the range of 10 to 25 µM. In the assay with SARS-CoV-2, the inhibition at 10 µM is less than 0% and the inhibition at 50 µM is less than 0%.
Turning to `Cc1ccc(NC(=O)CCOCCOCCNc2cccc3c2C(=O)N(C2CCC(=O)NC2=O)C3=O)cc1C(=O)N[C@H](C)c1cccc2ccccc12` (stereo partly drawn) [TS139], the IC50 against SARS-CoV-2 PLpro is less than 10 µM. In the assay with SARS-CoV-2, the inhibition at 10 µM is less than 0% and the inhibition at 50 µM is less than 25%.
`Cc1ccc(NC(=O)CCOCCNc2cccc3c2C(=O)N(C2CCC(=O)NC2=O)C3=O)cc1C(=O)N[C@H](C)c1cccc2ccccc12` (stereo partly drawn) [TS144] registered an IC50 against SARS-CoV-2 PLpro of 10 to 25 µM. Moreover, in the assay on SARS-CoV-2, the inhibition at 10 µM was less than 0% and the inhibition at 50 µM is less than 0%.
Regarding `Cc1ccc(NC(=O)CCCNc2cccc3c2C(=O)N(C2CCC(=O)NC2=O)C3=O)cc1C(=O)N[C@H](C)c1cccc2ccccc12` (stereo partly drawn) [TS145], the IC50 against SARS-CoV-2 PLpro was less than 10 µM.
As to `Cc1ccc(NC(=O)CCOCCOCCNc2ccc3c4c(cccc24)C(=O)N(C2CCC(=O)NC2=O)C3=O)cc1C(=O)N[C@H](C)c1cccc2ccccc12` (stereo partly drawn) [TS170], the IC50 at SARS-CoV-2 PLpro is less than 10 µM. For the same compound, in the assay with SARS-CoV-2, the inhibition at 10 µM is less than 0% and the inhibition at 50 µM is less than 25%.
For the compound `Cc1ccc(NC(=O)CCOCCOCCOCCNc2ccc3c4c(cccc24)C(=O)N(C2CCC(=O)NC2=O)C3=O)cc1C(=O)N[C@H](C)c1cccc2ccccc12` (stereo partly drawn) [TS182], the IC50 against SARS-CoV-2 PLpro is less than 10 µM. Moreover, in the assay with SARS-CoV-2, the inhibition at 10 µM was less than 0% and the inhibition at 50 µM is less than 25%.
`Cc1ccc(NC(=O)CCCCOc2cc3c4c(cccc4c2)C(=O)N(C2CCC(=O)NC2=O)C3=O)cc1C(=O)N[C@H](C)c1cccc2ccccc12` (stereo partly drawn) [TS251]: on SARS-CoV-2 PLpro, the IC50 was in the range of 10 to 25 µM. Besides, in the assay on SARS-CoV-2, the inhibition at 10 µM is less than 0% and the inhibition at 50 µM is less than 25%.
The compound `Cc1ccc(NC(=O)CCCCNc2cccc3c2C(=O)N(C2CCC(=O)NC2=O)C3=O)cc1C(=O)N[C@H](C)c1cccc2ccccc12` (stereo partly drawn) [TS267] had an IC50 against SARS-CoV-2 PLpro of less than 10 µM. Besides, in the assay on SARS-CoV-2, the inhibition at 10 µM was less than 0% and the inhibition at 50 µM is less than 0%.
In the case of `Cc1ccc(NC(=O)CCCCOc2cc(-c3scnc3C)ccc2CNC(=O)[C@@H]2C[C@@H](O)CN2C(=O)[C@@H](NC(=O)C2(F)CC2)C(C)(C)C)cc1C(=O)N[C@H](C)c1cccc2ccccc12` [TS290], the IC50 against SARS-CoV-2 PLpro was more than 25 µM. Besides, in the assay on SARS-CoV-2, the inhibition at 10 µM is less than 0% and the inhibition at 50 µM is less than 25%.
In turn, `Cc1ccc(NC(=O)CCCCC(=O)N[C@H](C(=O)N2C[C@H](O)C[C@H]2C(=O)NCc2ccc(-c3scnc3C)cc2)C(C)(C)C)cc1C(=O)N[C@H](C)c1cccc2ccccc12` [TS309] returned an IC50 against SARS-CoV-2 PLpro of 10 to 25 µM. In the assay with SARS-CoV-2, the inhibition at 10 µM is less than 0% and the inhibition at 50 µM was less than 0%.
Consider `Cc1ccc(NC(=O)CCCCCCC(=O)N[C@H](C(=O)N2C[C@H](O)C[C@H]2C(=O)NCc2ccc(-c3scnc3C)cc2)C(C)(C)C)cc1C(=O)N[C@H](C)c1cccc2ccccc12` [TS310], for which the IC50 against SARS-CoV-2 PLpro was more than 25 µM. In the assay on SARS-CoV-2, the inhibition at 10 µM was less than 0% and the inhibition at 50 µM was less than 0%.
At SARS-CoV-2 PLpro, `Cc1ccc(NC(=O)CCCCCCCCC(=O)N[C@H](C(=O)N2C[C@H](O)C[C@H]2C(=O)NCc2ccc(-c3scnc3C)cc2)C(C)(C)C)cc1C(=O)N[C@H](C)c1cccc2ccccc12` [TS311] showed an IC50 of more than 25 µM. For the same compound, in the assay on SARS-CoV-2, the inhibition at 10 µM was less than 0% and the inhibition at 50 µM is less than 0%.
